How the values were obtained:
[1] = target: Epithelial discoidin domain-containing receptor 1 (Homo sapiens, UniProt Q08345)
Aurora kinase C = target: T1, Aurora kinase C (Homo sapiens, UniProt Q9UQB9)
T1 sequence (Q9UQB9 whole entry): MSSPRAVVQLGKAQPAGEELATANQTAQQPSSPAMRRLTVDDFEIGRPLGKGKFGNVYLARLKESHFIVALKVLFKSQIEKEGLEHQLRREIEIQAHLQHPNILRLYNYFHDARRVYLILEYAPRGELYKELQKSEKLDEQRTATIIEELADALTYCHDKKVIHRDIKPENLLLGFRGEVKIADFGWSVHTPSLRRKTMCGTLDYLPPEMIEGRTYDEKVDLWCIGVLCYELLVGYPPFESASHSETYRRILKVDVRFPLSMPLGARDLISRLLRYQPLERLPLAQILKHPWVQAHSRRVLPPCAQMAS

[2] = target: T2, Inhibitor of nuclear factor kappa-B kinase subunit epsilon (Homo sapiens, UniProt Q14164)
T2 sequence (Q14164 whole entry): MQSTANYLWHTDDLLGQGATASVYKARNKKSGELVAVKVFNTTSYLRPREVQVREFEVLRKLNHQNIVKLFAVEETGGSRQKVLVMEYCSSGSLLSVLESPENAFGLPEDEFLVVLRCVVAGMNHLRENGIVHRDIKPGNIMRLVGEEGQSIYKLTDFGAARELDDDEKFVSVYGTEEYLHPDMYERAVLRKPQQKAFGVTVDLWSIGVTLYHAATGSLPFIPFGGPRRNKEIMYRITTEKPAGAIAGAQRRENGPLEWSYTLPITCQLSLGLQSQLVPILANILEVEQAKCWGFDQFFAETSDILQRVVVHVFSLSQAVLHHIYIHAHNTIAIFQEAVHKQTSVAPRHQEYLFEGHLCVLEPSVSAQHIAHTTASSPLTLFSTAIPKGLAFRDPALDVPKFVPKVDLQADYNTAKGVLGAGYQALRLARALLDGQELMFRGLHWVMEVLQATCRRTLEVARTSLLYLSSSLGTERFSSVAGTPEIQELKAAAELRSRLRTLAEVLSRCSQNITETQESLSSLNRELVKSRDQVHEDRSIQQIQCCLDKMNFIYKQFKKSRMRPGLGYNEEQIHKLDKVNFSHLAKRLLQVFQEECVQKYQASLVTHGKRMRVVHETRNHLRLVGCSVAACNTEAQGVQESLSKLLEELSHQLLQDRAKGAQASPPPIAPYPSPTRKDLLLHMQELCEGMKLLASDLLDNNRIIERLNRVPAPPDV

[3] = target: Serine/threonine-protein kinase PLK1 (Homo sapiens, UniProt P53350)
[4] = target: Receptor-interacting serine/threonine-protein kinase 2 (Homo sapiens, UniProt O43353)
Angiopoietin-1 receptor = Angiopoietin-1 receptor (Homo sapiens, UniProt Q02763)
[5] = target: Tyrosine-protein kinase JAK1 (Homo sapiens, UniProt P23458)
[6] = target: Serine/threonine-protein kinase MRCK gamma (Homo sapiens, UniProt Q6DT37)
[7] = target: Dual specificity mitogen-activated protein kinase kinase 2 (Homo sapiens, UniProt P36507)
[8] = target: T3, Atypical kinase COQ8B, mitochondrial (Homo sapiens, UniProt Q96D53)
T3 sequence (Q96D53 whole entry): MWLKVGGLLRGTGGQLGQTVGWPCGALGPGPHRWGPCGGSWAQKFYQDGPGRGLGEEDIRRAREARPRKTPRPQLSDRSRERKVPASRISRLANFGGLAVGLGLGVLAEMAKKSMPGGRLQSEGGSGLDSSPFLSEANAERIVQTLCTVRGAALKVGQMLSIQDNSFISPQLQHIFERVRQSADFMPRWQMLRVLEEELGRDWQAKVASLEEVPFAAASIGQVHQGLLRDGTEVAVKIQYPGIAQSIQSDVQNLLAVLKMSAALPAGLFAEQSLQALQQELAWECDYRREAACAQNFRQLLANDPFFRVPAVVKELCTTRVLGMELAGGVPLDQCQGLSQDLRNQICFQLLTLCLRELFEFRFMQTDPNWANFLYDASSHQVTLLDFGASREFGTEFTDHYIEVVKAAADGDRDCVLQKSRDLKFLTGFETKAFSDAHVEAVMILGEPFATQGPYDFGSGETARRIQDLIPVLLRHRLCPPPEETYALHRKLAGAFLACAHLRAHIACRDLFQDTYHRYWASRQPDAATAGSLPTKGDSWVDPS

[9] = target: T4, Tyrosine-protein kinase ZAP-70 (Homo sapiens, UniProt P43403)
T4 sequence (P43403 whole entry): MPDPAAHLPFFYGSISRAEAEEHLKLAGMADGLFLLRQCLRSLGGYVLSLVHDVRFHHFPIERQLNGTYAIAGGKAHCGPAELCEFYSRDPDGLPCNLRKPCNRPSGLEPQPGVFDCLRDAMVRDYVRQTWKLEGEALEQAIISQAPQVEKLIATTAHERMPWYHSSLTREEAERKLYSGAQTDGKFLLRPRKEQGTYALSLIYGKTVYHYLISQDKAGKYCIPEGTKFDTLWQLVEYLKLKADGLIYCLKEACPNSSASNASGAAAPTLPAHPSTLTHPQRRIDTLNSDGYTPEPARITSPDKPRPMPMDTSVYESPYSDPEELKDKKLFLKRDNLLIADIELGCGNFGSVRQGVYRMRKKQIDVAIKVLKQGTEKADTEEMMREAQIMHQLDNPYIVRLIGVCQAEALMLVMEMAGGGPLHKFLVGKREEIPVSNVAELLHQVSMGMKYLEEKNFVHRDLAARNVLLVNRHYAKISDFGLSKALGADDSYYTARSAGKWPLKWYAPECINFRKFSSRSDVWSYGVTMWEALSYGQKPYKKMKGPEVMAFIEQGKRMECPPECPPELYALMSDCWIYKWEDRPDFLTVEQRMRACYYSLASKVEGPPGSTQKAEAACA

[10] = target: Serine/threonine-protein kinase MARK1 (Homo sapiens, UniProt Q9P0L2)
[11] = target: Serine/threonine-protein kinase tousled-like 2 (Homo sapiens, UniProt Q86UE8)
[12] = target: Tyrosine-protein kinase Srms (Homo sapiens, UniProt Q9H3Y6)
[13] = target: Receptor-type tyrosine-protein kinase FLT3 (Homo sapiens, UniProt P36888, ITD)
[14] = target: Calcium/calmodulin-dependent protein kinase kinase 2 (Homo sapiens, UniProt Q96RR4)
Chain of Calcium/calmodulin-dependent protein kinase kinase 2 (Q96RR4 whole entry): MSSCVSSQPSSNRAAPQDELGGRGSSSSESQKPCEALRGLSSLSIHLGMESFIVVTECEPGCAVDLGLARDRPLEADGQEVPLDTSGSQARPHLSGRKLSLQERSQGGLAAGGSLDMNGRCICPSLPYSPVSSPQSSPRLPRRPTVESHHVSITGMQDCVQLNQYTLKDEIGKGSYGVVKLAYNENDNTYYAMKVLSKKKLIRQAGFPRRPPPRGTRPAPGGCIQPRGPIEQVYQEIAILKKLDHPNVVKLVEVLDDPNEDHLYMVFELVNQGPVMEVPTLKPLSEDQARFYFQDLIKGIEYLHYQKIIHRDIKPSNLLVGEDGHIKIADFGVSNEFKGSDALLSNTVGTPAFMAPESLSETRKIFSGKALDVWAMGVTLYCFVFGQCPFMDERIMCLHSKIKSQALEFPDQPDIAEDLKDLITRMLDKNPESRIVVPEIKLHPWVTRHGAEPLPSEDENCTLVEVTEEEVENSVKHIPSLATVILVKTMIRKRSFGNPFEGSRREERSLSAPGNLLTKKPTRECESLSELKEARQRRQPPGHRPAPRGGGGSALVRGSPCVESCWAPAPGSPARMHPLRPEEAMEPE

Chain of Epithelial discoidin domain-containing receptor 1 (Q08345 whole entry, the tested form may be a part): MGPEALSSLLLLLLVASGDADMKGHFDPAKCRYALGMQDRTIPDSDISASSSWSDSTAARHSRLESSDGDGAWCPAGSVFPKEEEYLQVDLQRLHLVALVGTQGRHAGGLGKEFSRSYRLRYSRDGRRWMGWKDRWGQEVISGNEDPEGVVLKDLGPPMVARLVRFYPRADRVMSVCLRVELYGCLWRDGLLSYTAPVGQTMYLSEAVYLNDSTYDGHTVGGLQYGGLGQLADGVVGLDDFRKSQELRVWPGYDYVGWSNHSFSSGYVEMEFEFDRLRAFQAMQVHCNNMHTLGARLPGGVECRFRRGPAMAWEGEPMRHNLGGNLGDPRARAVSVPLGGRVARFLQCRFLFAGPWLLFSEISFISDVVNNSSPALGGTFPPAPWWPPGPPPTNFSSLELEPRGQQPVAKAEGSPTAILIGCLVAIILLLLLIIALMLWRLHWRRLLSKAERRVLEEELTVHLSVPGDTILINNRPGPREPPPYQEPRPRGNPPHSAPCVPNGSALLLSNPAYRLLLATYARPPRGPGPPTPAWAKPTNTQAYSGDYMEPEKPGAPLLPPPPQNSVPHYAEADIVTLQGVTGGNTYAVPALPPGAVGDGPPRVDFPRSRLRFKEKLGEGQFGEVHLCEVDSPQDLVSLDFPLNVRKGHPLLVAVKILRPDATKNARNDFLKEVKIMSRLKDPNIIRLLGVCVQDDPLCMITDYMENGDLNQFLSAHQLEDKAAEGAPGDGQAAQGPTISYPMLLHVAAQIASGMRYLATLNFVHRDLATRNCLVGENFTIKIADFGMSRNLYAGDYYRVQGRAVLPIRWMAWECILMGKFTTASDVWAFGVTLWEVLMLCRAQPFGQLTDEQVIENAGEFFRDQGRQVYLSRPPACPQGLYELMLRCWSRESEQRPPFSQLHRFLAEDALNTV
Chain of Receptor-type tyrosine-protein kinase FLT3 (P36888 whole entry, looked up, change not shown): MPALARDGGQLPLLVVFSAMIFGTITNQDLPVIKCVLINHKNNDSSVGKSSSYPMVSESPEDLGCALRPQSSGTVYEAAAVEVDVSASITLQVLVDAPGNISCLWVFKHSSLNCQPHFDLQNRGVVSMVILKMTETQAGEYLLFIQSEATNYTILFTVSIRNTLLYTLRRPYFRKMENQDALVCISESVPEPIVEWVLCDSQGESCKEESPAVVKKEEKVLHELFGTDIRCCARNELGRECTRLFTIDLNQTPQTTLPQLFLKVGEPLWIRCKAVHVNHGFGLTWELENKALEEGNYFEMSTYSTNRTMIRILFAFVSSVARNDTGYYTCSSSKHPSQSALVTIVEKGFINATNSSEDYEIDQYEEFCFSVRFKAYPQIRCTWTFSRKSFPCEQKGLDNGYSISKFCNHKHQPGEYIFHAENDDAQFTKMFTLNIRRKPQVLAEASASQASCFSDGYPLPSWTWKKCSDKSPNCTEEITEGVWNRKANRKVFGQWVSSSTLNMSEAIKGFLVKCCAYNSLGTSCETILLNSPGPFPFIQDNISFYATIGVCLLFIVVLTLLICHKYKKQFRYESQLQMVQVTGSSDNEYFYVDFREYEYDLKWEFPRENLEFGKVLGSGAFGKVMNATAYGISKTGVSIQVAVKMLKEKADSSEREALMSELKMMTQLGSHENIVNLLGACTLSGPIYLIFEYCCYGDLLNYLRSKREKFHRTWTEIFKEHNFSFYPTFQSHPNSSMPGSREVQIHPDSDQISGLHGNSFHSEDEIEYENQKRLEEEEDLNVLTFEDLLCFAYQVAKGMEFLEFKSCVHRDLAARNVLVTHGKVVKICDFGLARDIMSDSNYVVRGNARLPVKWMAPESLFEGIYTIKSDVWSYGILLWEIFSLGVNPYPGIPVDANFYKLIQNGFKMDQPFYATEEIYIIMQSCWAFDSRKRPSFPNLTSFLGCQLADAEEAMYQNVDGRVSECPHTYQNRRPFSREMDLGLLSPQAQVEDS
Chain of Tyrosine-protein kinase JAK1 (P23458 whole entry): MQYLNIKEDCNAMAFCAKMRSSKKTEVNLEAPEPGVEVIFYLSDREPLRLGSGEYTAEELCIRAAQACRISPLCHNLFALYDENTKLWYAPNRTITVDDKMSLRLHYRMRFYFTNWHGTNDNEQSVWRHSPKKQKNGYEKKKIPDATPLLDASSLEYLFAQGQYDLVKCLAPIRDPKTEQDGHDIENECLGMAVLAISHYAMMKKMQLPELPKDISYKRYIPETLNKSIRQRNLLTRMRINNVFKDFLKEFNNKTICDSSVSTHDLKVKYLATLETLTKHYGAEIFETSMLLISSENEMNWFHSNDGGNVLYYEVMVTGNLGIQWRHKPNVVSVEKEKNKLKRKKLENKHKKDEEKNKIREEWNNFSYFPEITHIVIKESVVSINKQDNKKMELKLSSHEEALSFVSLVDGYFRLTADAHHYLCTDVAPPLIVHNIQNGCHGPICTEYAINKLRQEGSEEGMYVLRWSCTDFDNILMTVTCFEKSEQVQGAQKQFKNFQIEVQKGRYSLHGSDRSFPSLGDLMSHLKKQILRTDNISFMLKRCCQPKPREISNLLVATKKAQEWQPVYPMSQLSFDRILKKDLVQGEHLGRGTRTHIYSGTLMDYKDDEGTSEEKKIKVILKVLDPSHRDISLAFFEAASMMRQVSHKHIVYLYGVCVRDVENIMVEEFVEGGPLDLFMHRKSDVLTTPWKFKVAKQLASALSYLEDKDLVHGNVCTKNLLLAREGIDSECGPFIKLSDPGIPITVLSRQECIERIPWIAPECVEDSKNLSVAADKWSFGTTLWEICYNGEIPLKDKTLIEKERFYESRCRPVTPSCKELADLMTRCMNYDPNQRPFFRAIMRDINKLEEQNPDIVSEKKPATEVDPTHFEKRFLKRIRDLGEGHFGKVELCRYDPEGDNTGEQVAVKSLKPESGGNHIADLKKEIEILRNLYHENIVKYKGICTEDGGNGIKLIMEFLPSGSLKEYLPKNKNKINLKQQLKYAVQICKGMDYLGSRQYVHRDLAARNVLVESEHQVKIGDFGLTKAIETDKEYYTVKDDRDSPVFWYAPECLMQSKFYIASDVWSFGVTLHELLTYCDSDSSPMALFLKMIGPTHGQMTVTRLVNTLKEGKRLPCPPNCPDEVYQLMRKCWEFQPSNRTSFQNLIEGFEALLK
Chain of Tyrosine-protein kinase Srms (Q9H3Y6 whole entry): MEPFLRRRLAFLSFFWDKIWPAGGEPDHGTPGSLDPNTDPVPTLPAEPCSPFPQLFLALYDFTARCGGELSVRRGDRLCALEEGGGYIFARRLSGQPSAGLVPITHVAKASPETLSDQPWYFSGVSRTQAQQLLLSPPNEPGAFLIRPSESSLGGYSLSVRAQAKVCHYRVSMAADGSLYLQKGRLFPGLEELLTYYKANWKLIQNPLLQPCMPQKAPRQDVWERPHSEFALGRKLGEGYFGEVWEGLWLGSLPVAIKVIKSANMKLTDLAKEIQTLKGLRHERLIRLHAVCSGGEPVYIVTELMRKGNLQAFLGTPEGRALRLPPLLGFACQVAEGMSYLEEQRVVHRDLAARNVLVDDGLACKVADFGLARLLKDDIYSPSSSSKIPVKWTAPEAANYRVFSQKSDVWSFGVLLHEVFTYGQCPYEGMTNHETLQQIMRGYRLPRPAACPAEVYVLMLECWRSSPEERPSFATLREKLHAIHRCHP
Chain of Serine/threonine-protein kinase tousled-like 2 (Q86UE8 whole entry): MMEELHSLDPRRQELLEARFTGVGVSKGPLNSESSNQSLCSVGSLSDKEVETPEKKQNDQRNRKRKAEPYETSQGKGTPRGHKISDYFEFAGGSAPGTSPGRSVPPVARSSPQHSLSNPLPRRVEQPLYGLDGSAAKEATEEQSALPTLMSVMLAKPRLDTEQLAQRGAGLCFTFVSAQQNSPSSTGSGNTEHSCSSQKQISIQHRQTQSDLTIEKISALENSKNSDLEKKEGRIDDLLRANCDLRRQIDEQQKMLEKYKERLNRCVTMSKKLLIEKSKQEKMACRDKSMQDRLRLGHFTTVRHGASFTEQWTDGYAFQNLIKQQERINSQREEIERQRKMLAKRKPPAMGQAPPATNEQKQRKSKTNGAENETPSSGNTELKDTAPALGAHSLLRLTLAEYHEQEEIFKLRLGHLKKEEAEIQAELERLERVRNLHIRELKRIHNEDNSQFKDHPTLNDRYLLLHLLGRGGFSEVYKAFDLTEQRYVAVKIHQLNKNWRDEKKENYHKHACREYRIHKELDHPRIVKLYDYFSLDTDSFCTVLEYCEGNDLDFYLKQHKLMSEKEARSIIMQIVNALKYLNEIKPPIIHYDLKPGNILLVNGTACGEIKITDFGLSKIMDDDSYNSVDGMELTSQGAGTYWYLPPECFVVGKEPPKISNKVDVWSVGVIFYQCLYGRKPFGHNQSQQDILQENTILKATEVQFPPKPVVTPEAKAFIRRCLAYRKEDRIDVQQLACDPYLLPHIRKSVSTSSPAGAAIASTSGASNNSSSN

| SMILES | Kd [1] | Kd (Aurora kinase C) | Kd [2] | Kd [3] | Kd [4] | Kd (Angiopoietin-1 receptor) | Kd [5] | Kd [6] | Kd [7] | Kd [8] | Kd [9] | Kd [10] | Kd [11] | Kd [12] | Kd [13] | Kd [14] |
| --- | --- | --- | --- | --- | --- | --- | --- | --- | --- | --- | --- | --- | --- | --- | --- | --- |
| COCC(=O)NC/C=C/c1ccc2ncnc(Nc3ccc(Oc4ccc(C)nc4)c(C)c3)c2c1 [CP-724714] | > 10 µM | > 10 µM | > 10 µM | > 10 µM | > 10 µM | > 10 µM | > 10 µM | > 10 µM | > 10 µM | > 10 µM | > 10 µM | > 10 µM | > 10 µM | > 10 µM | > 10 µM | > 10 µM |
| NC(=O)c1ccc(-c2nc(-c3ccc4c(c3)OCO4)c(-c3ccccn3)[nH]2)cc1 [SB-431542] | > 10 µM | > 10 µM | > 10 µM | > 10 µM | 3.4 µM | > 10 µM | > 10 µM | > 10 µM | > 10 µM | > 10 µM | > 10 µM | > 10 µM | > 10 µM | > 10 µM | – | > 10 µM |
| Nc1nc(Nc2ccc(S(N)(=O)=O)cc2)nn1C(=O)c1c(F)cccc1F [JNJ-7706621] | > 10 µM | 0.086 µM | – | 5 µM | > 10 µM | – | – | > 10 µM | – | > 10 µM | > 10 µM | – | – | > 10 µM | – | – |
| CCOc1cc2ncc(C#N)c(Nc3ccc(F)c(Cl)c3)c2cc1NC(=O)/C=C/CN(C)C [PELITINIB] | > 10 µM | > 10 µM | > 10 µM | > 10 µM | > 10 µM | > 10 µM | > 10 µM | > 10 µM | – | 6.1 µM | > 10 µM | – | > 10 µM | > 10 µM | > 10 µM | – |
| Oc1ccc(-c2nc(-c3ccncc3)c(-c3ccc(F)cc3)[nH]2)cc1 [SB-202190] | – | > 10 µM | > 10 µM | > 10 µM | – | > 10 µM | > 10 µM | 0.64 µM | 9.6 µM | 4.9 µM | > 10 µM | > 10 µM | > 10 µM | > 10 µM | > 10 µM | > 10 µM |

Reference: ChEMBL document CHEMBL1150977, “A quantitative analysis of kinase inhibitor selectivity” (Nat Biotechnol, 2008)
